Experimental data: patent publication US10494380B2, “Nitrogen-containing tricyclic derivatives having HIV replication inhibitory activity” (priority 2015, dated 2019)
Where two headings read alike, the source gives them in different places.

What was measured:
[1] = tested on: HIV; format: cell-based; conditions: EC50 in the presence of human serum (25%) versus without human serum, MT-4 cells
How it was run: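 HIV-infected MT-4 cells (3×10^4/well, infected 1 h at 37° C) are grown 4 days with compound that was first mixed 1 h with human serum or with medium only. Potency shift is the EC50 with serum divided by the EC50 without serum.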

[2] = tested on: sheep red blood cells (RBC); experiment: Photohemolysis test (Test Example 13); format: cell-based; conditions: 0.0008 to 0.1 w/v %, 10 J/cm2 UV-irradiation (290-400 nm)
Source text: Aliquots of sheep red blood cells (RBC) suspension prepared with medium to make a 2.5 v/v % concentration are dispensed into microplates. The compound of the present invention was desolved with a vehicle to make target concentrations and then these solutions were immediately added (in concentrations of 0.0008 to 0.1 w/v %) into the microplates. The mixtures on the microplates were exposed to 10 J/cm2 of UV-irradiation (UV-A and UV-B, 290-400 nm) with a GL20SE lamp (SANKYO DENKI) and a FL20S-BLB lamp (Panasonic). After the UV-irradiation, the mixtures were centrifuged. Aliquots of supernatant were transferred to a microplate. Absorbance of the supernatants was measured at 540 nm and 630 nm for judgement of the potential of phototoxicity. In the study, two endpoints were evaluated in biomembrane impairment (% of photohemolysis index; PI) and hyperoxidation of lipid membrane (methemoglobin formation; met-Hb) with the absorbance at 540 nm and 630 nm, respectively. PI and met-Hb were assessed based on the negative criteria (−), PI<10% and changes in absorbance at 630 nm<0.05, respectively. All else was judged as positive (+).

[3] = tested on: HIV (HTLV-IIIB strain); experiment: HIV replication inhibition assay (Test Example 1; MT-4 cells, MTT); format: cell-based; conditions: MT-4 cells, MTT; for EC50: read-out: EC50; for EC90: read-out: EC90
How it was run: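 MT-4 cells (2.5×10^4/well) were infected with HIV HTLV-IIIB (60 pfu) in the presence of compound and cultured 4 days at 37 °C. Cell viability was read by MTT reduction (OD 560/690 nm). EC50 and EC90 are the concentrations inhibiting virus-induced cytotoxicity by 50% and 90%.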

[4] = target: CYP3A4 (Homo sapiens (Human), UniProt P08684); experiment: CYP3A4 (MDZ) MBI test (Test Example 6); conditions: pooled human liver microsomes, midazolam 1-hydroxylation, preincubation 0 or 30 min
[5] = tested on: T125A mutant virus (HIV-1 NL-432 recombinant molecular clone, IN gene); experiment: HIV replication inhibition assay against integrase 124/125 mutant virus (Test Example 2); format: cell-based
How it was run: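 EC50 is the compound concentration blocking half of virus-induced cell death, measured by MTT (OD 560 nm, 690 nm reference) after 4 days at 37 °C. Integrase 124/125 mutant NL-432 virus from transfected 293T cells (60 pfu) was added to 2.5×10^4 MT-4 cells with compound.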

[6] = target: CYP2C9 (Homo sapiens (Human), UniProt P11712); experiment: CYP inhibition assay, tolbutamide methyl-hydroxylation (Test Example 4); format: in vitro ADME; conditions: pooled human hepatic microsome, 100 μmol/L tolbutamide, 15 minutes, 37° C.
Protocol: Using commercially available pooled human hepatic microsome, and employing, as markers, 7-ethoxyresorufin O-deethylation (CYP1A2), tolbutamide methyl-hydroxylation (CYP2C9), mephenytoin 4′-hydroxylation (CYP2C19), dextromethorphan O-demethylation (CYP2D6), and terfenadine hydroxylation (CYP3A4) as typical substrate metabolism reactions of human main five CYP enzyme forms (CYP1A2, 2C9, 2C19, 2D6, 3A4) an inhibitory degree of each metabolite production amount by a test compound was assessed.
The reaction conditions were as follows: substrate, 0.5 μmol/L ethoxyresorufin (CYP1A2), 100 μmol/L tolbutamide (CYP2C9), 50 μmol/L S-mephenytoin (CYP2C19), 5 μmol/L dextromethorphan (CYP2D6), 1 μmol/L terfenedine (CYP3A4); reaction time, 15 minutes; reaction temperature, 37° C.; enzyme, pooled human hepatic microsome 0.2 mg protein/mL; test drug concentration, 1, 5, 10, 20 μmol/L (four points).
Each five kinds of substrates, human hepatic microsome, and a test drug in 50 mmol/L Hepes buffer as a reaction solution was added to a 96-well plate as the composition ad described above, NADPH, as a coenzyme was added to initiate metabolism reactions as markers and, after the incubation at 37° C. for 15 minutes, a methanol/acetonitrile=1/1 (V/V) solution was added to stop the reaction. After the centrifugation at 3000 rpm for 15 minutes, resorufin (CYP1A2 metabolite) in the supernatant was quantified by a fluorescent multilabel counter and tolbutamide hydroxide (CYP2C9 metabolite), mephenytoin 4′ hydroxide (CYP2C19 metabolite), dextrorphan (CYP2D6 metabolite), and terfenadine alcohol (CYP3A4 metabolite) were quantified by LC/MS/MS.

[7] = Human immunodeficiency virus 1, MT4, 96 h, HIV (HTLV-IIIB strain), four days
[8] = Human immunodeficiency virus 1, MT4, read-out: EC50 against T125A mutant virus, T125A mutant virus (HIV-1 NL-432 IN gene), MT-4 cells, MTT
[9] = HIV (HTLV-IIIB strain), four days

Sequence of CYP2C9 (P11712 whole entry): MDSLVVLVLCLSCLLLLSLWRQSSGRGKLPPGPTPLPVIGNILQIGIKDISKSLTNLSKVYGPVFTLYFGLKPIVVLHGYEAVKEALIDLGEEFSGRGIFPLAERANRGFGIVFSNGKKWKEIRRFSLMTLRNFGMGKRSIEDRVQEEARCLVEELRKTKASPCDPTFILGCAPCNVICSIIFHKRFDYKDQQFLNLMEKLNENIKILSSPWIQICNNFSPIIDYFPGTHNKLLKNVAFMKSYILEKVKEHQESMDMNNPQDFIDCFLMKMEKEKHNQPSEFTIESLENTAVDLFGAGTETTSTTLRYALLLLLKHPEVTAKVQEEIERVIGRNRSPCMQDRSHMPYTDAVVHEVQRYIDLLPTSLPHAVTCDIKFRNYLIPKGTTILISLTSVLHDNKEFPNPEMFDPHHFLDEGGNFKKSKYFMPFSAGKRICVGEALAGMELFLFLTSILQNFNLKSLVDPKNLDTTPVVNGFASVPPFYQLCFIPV
Sequence of CYP3A4 (P08684 whole entry): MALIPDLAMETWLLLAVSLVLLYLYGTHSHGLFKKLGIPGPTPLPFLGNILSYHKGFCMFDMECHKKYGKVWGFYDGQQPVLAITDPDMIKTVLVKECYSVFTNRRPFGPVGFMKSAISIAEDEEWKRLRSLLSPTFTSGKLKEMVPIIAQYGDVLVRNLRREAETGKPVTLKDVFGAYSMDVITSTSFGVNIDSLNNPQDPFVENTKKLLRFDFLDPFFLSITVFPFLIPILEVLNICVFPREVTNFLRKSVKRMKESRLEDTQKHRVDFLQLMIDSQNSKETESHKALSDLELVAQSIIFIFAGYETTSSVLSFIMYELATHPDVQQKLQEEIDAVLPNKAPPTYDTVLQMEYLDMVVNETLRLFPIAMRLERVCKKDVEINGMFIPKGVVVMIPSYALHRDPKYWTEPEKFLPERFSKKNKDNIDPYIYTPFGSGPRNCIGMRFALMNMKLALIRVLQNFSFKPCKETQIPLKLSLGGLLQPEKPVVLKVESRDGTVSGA

Row | Compound | Potency shift value [1] | Photohemolysis test, potential of phototoxicity (PI and met-Hb) [2] | EC50 [3, 7] [nM] | EC90 [3, 7] [nM] | CYP3A4 (MDZ) MBI, shifted IC [4] | EC50 [5, 8] [nM] | IC50 [6] [nM] | EC50 ([3]; Human immunodeficiency virus 1, MT4, 96 h, HIV HTLV-IIIB strain, cultured four days) [nM] | EC50 [3, 9] [nM] | EC90 [3, 9] [nM] | EC50 ([5]; T125A mutant virus (HIV-1 NL-432 IN gene), MT-4 cells, MTT, read-out: EC50 against T125A mutant virus) [nM]
1 | COc1cnc(N2CCn3c(C)cc4c(-c5ccc(Cl)cc5)c([C@H](OC(C)(C)C)C(=O)O)c(C)c2c43)nc1 [Compound I-156] | 12 | (−) (negative criteria (−), PI<10% and changes in absorbance at 630 nm<0.05, respectively) | 0.85 | 1.2 | (−) (When a shifted IC was 1.0 or less, this was defined as negative) | 3.6 | > 20000 |  |  |  | 
2 | CCOc1cnc(N2CCn3c(C)cc4c(-c5ccc(Cl)cc5)c([C@H](OC(C)(C)C)C(=O)O)c(C)c2c43)nc1 [Compound I-181] | 17 | (−) (negative criteria (−), PI<10% and changes in absorbance at 630 nm<0.05, respectively) |  | 2.3 | (−) (When a shifted IC was 1.0 or less, this was defined as negative) | 3.5 | > 20000 | 1.4 |  |  | 
3 | COc1cnc(N2CCn3c(C)cc4c(-c5ccc(C)cc5)c([C@H](OC(C)(C)C)C(=O)O)c(C)c2c43)nc1 [Compound I-189] | 22 | (−) (negative criteria (−), PI<10% and changes in absorbance at 630 nm<0.05, respectively) | 1.6 | 3.2 | (−) (When a shifted IC was 1.0 or less, this was defined as negative) | 3.1 | > 20000 |  |  |  | 
4 | Cc1cnc(N2CCn3c(C)cc4c(-c5ccc(Cl)cc5)c([C@H](OC(C)(C)C)C(=O)O)c(C)c2c43)nc1 [Compound I-190] | 21 | (−) (negative criteria (−), PI<10% and changes in absorbance at 630 nm<0.05, respectively) | 0.83 | 1.3 | (−) (When a shifted IC was 1.0 or less, this was defined as negative) | 2.1 | > 20000 |  |  |  | 
5 | Cc1ccc(-c2c([C@H](OC(C)(C)C)C(=O)O)c(C)c3c4c2cc(C)n4CCN3c2ncc(OCCN(C)C)cn2)cc1 [Compound I-220] | 3.7 | (−) (negative criteria (−), PI<10% and changes in absorbance at 630 nm<0.05, respectively) |  |  | (−) (When a shifted IC was 1.0 or less, this was defined as negative) |  | > 20000 |  | 6 | 11 | 14
6 | Cc1c([C@H](OC(C)(C)C)C(=O)O)c(-c2ccc(Cl)cc2)c2cc(C)n3c2c1N(c1ncc(OCCN(C)C)cn1)CC3 [Compound I-244] | 3.4 | (−) (negative criteria (−), PI<10% and changes in absorbance at 630 nm<0.05, respectively) | 4.8 | 8 | (−) (When a shifted IC was 1.0 or less, this was defined as negative) | 12 | > 20000 |  |  |  | 
7 | Cc1c([C@H](OC(C)(C)C)C(=O)O)c(-c2ccc(Cl)cc2)c2cc(C)n3c2c1N(c1ncc(OCCCN(C)C)cn1)CC3 [Compound I-257] | 4 | (−) (negative criteria (−), PI<10% and changes in absorbance at 630 nm<0.05, respectively) | 7.4 | 8.1 | (−) (When a shifted IC was 1.0 or less, this was defined as negative) | 28 | > 20000 |  |  |  | 
8 | Cc1c([C@H](OC(C)(C)C)C(=O)O)c(-c2ccc(Cl)cc2)c2cc(C)n3c2c1N(c1ncc(OCC2COC2)cn1)CC3 [Compound I-258] | 11 | (−) (negative criteria (−), PI<10% and changes in absorbance at 630 nm<0.05, respectively) | 2.1 | 2.9 | (−) (When a shifted IC was 1.0 or less, this was defined as negative) | 4.9 | > 20000 |  |  |  | 
9 | [2H]C([2H])([2H])Oc1cnc(N2CCn3c(C)cc4c(-c5ccc(Cl)cc5)c([C@H](OC(C)(C)C)C(=O)O)c(C)c2c43)nc1 [Compound I-260] | 15 | (−) (negative criteria (−), PI<10% and changes in absorbance at 630 nm<0.05, respectively) | 1.1 | 1.5 | (−) (When a shifted IC was 1.0 or less, this was defined as negative) | 3.6 | > 20000 |  |  |  | 
10 | Cc1ccc(N2CCn3c(C)cc4c(-c5ccc(Cl)cc5)c([C@H](OC(C)(C)C)C(=O)O)c(C)c2c43)nn1 [Compound I-262] | 13 | (−) (negative criteria (−), PI<10% and changes in absorbance at 630 nm<0.05, respectively) | 3.2 | 5.1 | (−) (When a shifted IC was 1.0 or less, this was defined as negative) | 5 | > 20000 |  |  |  | 
11 | Cc1ccc(-c2c([C@H](OC(C)(C)C)C(=O)O)c(C)c3c4c2cc(C)n4CCN3c2ncc(OCCCN(C)C)cn2)cc1 [Compound I-267] | 4 | (−) (negative criteria (−), PI<10% and changes in absorbance at 630 nm<0.05, respectively) | 11 | 18 | (−) (When a shifted IC was 1.0 or less, this was defined as negative) | 26 | > 20000 |  |  |  | 
12 | Cc1ccc(-c2c([C@H](OC(C)(C)C)C(=O)O)c(C)c3c4c2cc(C)n4CCN3c2ncc(O[C@H]3CCN(C)C3)cn2)cc1 [Compound I-270] | 3.8 | (−) (negative criteria (−), PI<10% and changes in absorbance at 630 nm<0.05, respectively) | 4.5 | 7.5 | (−) (When a shifted IC was 1.0 or less, this was defined as negative) | 13 | > 20000 |  |  |  | 
13 | Cc1ccc(-c2c([C@H](OC(C)(C)C)C(=O)O)c(C)c3c4c2cc(C)n4CCN3c2ncc(OC3CCN(C)CC3)cn2)cc1 [Compound I-278] | 3.6 | (−) (negative criteria (−), PI<10% and changes in absorbance at 630 nm<0.05, respectively) | 5.5 | 11 | (−) (When a shifted IC was 1.0 or less, this was defined as negative) | 13 | > 20000 |  |  |  | 
